The results in this text go back to patent publication US11591337B2, “Substituted [1,2,4]triazolo[4,3-a]pyrazines as modulators of mGlu5 receptors” (Recordati Industria Chimica e Farmaceutica S.p.A., priority 2018, dated 2023).

Usually Ki stands for the dissociation constant of the complex between target and ligand, obtained from inhibition or displacement. In general, EC50 refers to the midpoint of the concentration-response curve. Usually IC50 stands for the point on the concentration scale where inhibition reaches its midpoint.

Experiment [1] has as its target T1, mGlu5 receptor (Homo sapiens, UniProt P41594).
T1 construct: Human mGluR5 open reading frame (ORF), comprehensive of the stop codon, were cloned into the pcDNA4/TO/myc-His™ A vector; expressed in transfected cells
Kind of experiment: Radioligand binding assay ([3H]MPEP) at cloned mGluR5. To be noted: CHO T-REx h-mGluR5 cells, 4 nM [3H]MPEP, 60 min at 25° C.; read-out: affinity (Ki) for mGlu5 receptor. An excerpt: Cell lines stably transfected were generated using inducible expression vectors encoding human mGlu5 receptor using the Tetracycline-Regulated Expression system (T-REx™ system, Invitrogen, Life Technologies). Human mGluR5 open reading frame (ORF), comprehensive of the stop codon, were cloned into the pcDNA4/TO/myc-His™ A vector, carrying the TetO2. The insertion site was HindIII-PstI for mGluR5 receptors. The obtained constructs were then transfected into the T-REx CHO™ cell line using the FuGENE protocol (Roche); the CHO T-REx™ cell line stably expresses the Tet repressor (from the pcDNA6/TR plasmid) under the selection of blasticidin, 10 μg/ml. […] The expression of h-mGluR5 receptors was de-repressed with 1 μg/ml tetracycline for 18 h before binding experimentation, while the expression of h-mGluR5 receptors was derepressed respectively with 3 ng/ml and 10 ng/ml tetracycline for 18 h before calcium fluorescence experimentation.
Affinity at transmembrane glutamate metabotropic mGluR5 receptor subtypes was evaluated according to the methods of Anderson (Anderson et al., J Pharmacol. Exp. Ther., (2002), Vol. 303(3), pp. 1044-51), with some modifications. […] Non-specific binding was determined in the presence of 10 μM MPEP. […] The filters were then washed with cold buffer and the radioactivity retained on the filters was counted by liquid scintillation spectrometry (Betaplate 1204 BS-Wallac). […]

Experiment [2] deals with T1, mGlu5 receptor. As to the kind of experiment: Functional activity at mGlu5 receptor as calcium fluorescence measurements. In kind it is cell-based. The source says: Cell lines stably transfected were generated using inducible expression vectors encoding human mGlu5 receptor using the Tetracycline-Regulated Expression system (T-REx™ system, Invitrogen, Life Technologies). Human mGluR5 open reading frame (ORF), comprehensive of the stop codon, were cloned into the pcDNA4/TO/myc-His™ A vector, carrying the TetO2. The insertion site was HindIII-PstI for mGluR5 receptors. The obtained constructs were then transfected into the T-REx CHO™ cell line using the FuGENE protocol (Roche); the CHO T-REx™ cell line stably expresses the Tet repressor (from the pcDNA6/TR plasmid) under the selection of blasticidin, 10 μg/ml. Stable clones were obtained selecting with zeocin 1 mg/ml and maintaining in ULTRA CHO medium (LONZA) supplemented with dialyzed FBS, zeocin, blasticidin, at 37° C., in an atmosphere of 5% CO2. The expression of h-mGluR5 receptors was de-repressed with 1 μg/ml tetracycline for 18 h before binding experimentation, while the expression of h-mGluR5 receptors was derepressed respectively with 3 ng/ml and 10 ng/ml tetracycline for 18 h before calcium fluorescence experimentation.
Cells were seeded into black-walled, clear-bottom, 96-well plates at a density of 80000 cell/well, in RPMI (without Phenol Red, without L-glutamine; Gibco LifeTechnologies, CA) supplemented with 10% dialyzed FBS. Following 18-h incubation with tetracycline, the cells were loaded with 2 mM Ca^2+- sensitive fluorescent dye Fluo-4/AM (Molecular Probes) in Hanks' balanced saline solution (HBSS, Gibco LifeTechnologies, CA) with […] Hepes (Sigma) and 2.5 mM probenecid (Sigma), for 1 h at 37° C. The cells were washed three times with HBSS to remove extracellular dye. Fluorescence signals were measured by using the fluorescence microplate reader Flexstation III (Molecular Devices) at sampling intervals of 1.5 s for 60 s.
The antagonist potency was determined using the EC80 of the quisqualate used as agonist and the potentiation of mGlu5 activation was determined using the EC20 of the agonist (quisqualate or glutamate). […]

T1 sequence (P41594 21-1212): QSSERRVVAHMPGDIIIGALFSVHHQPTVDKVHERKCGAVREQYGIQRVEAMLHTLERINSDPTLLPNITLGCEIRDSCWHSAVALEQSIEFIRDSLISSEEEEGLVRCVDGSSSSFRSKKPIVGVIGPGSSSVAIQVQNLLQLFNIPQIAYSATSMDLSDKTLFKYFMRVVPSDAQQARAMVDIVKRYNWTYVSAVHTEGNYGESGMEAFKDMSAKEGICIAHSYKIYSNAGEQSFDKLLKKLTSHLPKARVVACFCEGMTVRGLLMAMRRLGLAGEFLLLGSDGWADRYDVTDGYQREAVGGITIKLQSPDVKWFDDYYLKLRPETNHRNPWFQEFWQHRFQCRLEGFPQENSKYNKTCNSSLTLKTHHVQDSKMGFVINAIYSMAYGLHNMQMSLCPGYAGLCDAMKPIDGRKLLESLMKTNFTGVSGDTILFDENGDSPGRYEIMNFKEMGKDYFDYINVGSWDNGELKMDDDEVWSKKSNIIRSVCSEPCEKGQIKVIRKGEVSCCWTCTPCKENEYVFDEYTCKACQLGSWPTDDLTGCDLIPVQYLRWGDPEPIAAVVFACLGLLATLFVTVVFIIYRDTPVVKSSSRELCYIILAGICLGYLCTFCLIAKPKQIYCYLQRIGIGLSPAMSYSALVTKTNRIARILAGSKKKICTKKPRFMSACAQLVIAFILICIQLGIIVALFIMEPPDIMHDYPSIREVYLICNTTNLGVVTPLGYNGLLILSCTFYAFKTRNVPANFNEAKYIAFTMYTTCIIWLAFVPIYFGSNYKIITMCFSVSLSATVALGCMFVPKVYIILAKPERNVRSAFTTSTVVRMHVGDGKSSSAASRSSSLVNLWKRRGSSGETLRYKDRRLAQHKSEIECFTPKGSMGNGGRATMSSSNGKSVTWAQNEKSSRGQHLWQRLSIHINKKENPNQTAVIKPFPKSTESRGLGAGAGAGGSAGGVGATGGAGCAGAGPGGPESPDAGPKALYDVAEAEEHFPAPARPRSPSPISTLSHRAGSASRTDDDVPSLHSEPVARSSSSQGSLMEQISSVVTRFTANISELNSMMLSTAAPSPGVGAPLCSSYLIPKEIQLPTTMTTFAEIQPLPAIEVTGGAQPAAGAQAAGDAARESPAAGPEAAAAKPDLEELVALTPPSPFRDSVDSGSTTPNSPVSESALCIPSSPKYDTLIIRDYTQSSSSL

In the case of `O=C(c1cccc(Cl)c1)N1CCn2c(C#Cc3cccc(Cl)c3)nnc2C1` [Example 8, (3-Chlorophenyl)-[3-[2-(3-chlorophenyl)ethynyl]-6,8-dihydro-5H-[1,2,4]triazolo[4,3-a]pyrazin-7-yl]methanone], the Ki at mGlu5 receptor [1] came out at 33.8 nM. Also, on mGlu5 receptor [2] (potentiation of mGlu5 activation at EC20 of the agonist (quisqualate or glutamate), read-out: positive allosteric activity EC50), the EC50 came to 294 nM.
Take `CCN(C)C(=O)N1CCn2c(C#Cc3cccc(C)c3)nnc2C1` [Example 40, N-Ethyl-N-methyl-3-[2-(m-tolyl)ethynyl]-6,8-dihydro-5H-[1,2,4]triazolo[4,3-a]pyrazine-7-carboxamide]: on mGlu5 receptor [1], the Ki came out at 32 nM. Moreover, the “type of allosteric modulation” value at mGlu5 receptor [2] is on record as “negative allosteric modulator”. Moreover, the 50% inhibitory concentration (IC50) on mGlu5 receptor [2] (antagonist potency at EC80 of quisqualate, read-out: negative allosteric modulation activity IC50) amounted to 60.9 nM.
